Results taken from patent US20070232607A1, “Quinazoline Derivatives as Erbb Receptor Tyrosine kinases” (priority 2004, published 2007).

Columns and labels:
EGFR tyrosine kinase = target: T1, EGFR tyrosine kinase (Homo sapiens, UniProt P00533); test: Protein tyrosine kinase phosphorylation assay, Test (a), EGFR; format: biochemical; details: recombinant intracellular fragment, ATP at Km concentration; read-out: IC50 (μM) Test (a): Inhibition of EGFR tyrosine kinase protein phosphorylation
T1 construct: Recombinant intracellular fragments of EGFR, erbB2 and erbB4; made in house; host or cells: baculovirus/Sf21 insect cells (cleared lysate used)
Experimental: (§1) This test measures the ability of a test compound to inhibit the phosphorylation of a tyrosine containing polypeptide substrate by an erb receptor tyrosine kinase enzyme.
(§2) Recombinant intracellular fragments of EGFR, erbB2 and erbB4 (accession numbers X00588, X03363 and L07868 respectively) were cloned and expressed in the baculovirus/Sf21 system. Lysates were prepared from these cells by treatment with ice-cold lysis buffer (20 mM N-2-hydroxyethylpiperizine-N′-2-ethanesulfonic acid (HEPES) pH7.5, 150 mM NaCl, 10% glycerol, 1% Triton X-100, 1.5 mM MgCl2, 1 mM ethylene glycol-bis(β-aminoethyl ether) N′,N′,N′,N′-tetraacetic acid (EGTA), plus protease inhibitors and then cleared by centrifugation.
(§3) Constitutive kinase activity of these recombinant proteins was determined by their ability to phosphorylate a synthetic peptide (made up of a random co-polymer of Glutamic Acid, Alanine and Tyrosine in the ratio of 6:3:1). Specifically, Maxisorb™ 96-well immunoplates were coated with synthetic peptide (0.2 μg of peptide in a 100 μl phosphate buffered saline (PBS) solution and incubated at 4° C. overnight). Plates were washed in 50 mM HEPES pH 7.4 at room temperature to remove any excess unbound synthetic peptide. EGFR or erbB2 activities were assessed by incubation in peptide coated plates for 20 minutes at room temperature in 50 mM HEPES pH 7.4 at room temperature, adenosine trisphosphate (ATP) at Km concentration for the respective enzyme, 10 mM MnCl2, 0.05 mM Na3VO4, 0.1 mM DL-dithiothreitol (DTT), 0.05% Triton X-100 with test compound in DMSO (final concentration of 2.5%). Reactions were terminated by the removal of the liquid components of the assay followed by washing of the plates with PBS-T (phosphate buffered saline with 0.05% Tween 20).
(§4) The immobilised phospho-peptide product of the reaction was detected by immunological methods. Firstly, plates were incubated for 90 minutes at room temperature with anti-phosphotyrosine primary antibodies that were raised in the mouse (4G10 from Upstate Biotechnology). Following extensive washing, plates were treated with Horseradish Peroxidase (HRP) conjugated sheep anti-mouse secondary antibody (NXA931 from Amersham) for 60 minutes at room temperature. After further washing, HRP activity in each well of the plate was measured colorimetrically using 22′-Azino-di-[3-ethylbenzthiazoline sulfonate (6)] diammonium salt crystals (ABTS™ from Roche) as a substrate.
(§5) Quantification of colour development and thus enzyme activity was achieved by the measurement of absorbance at 405 nm on a Molecular Devices ThermoMax microplate reader. Kinase inhibition for a given compound was expressed as an IC50 value. […] The range of phosphorylation was calculated from the positive (vehicle plus ATP) and negative (vehicle minus ATP) control values.

[1] = target: T2, erbB2 in a MCF7 derived cell line (Clone 24 cells) (Homo sapiens, UniProt P04626); test: Clone 24 phospho-erbB2 cell assay, Test (d); format: cell-based; details: phosphorylation of erbB2 in a MCF7 derived cell line; read-out: IC50 (μM) Test (e): Inhibition of erbB2 tyrosine kinase protein phosphorylation
T2 construct: a cell line that overexpresses full length wild type erbB2 protein; expressed in transfected cells; host or cells: MCF7 (breast carcinoma) cells stably transfected, 'Clone 24'
Experimental: This immunofluorescence end point assay measures the ability of a test compound to inhibit the phosphorylation of erbB2 in a MCF7 (breast carcinoma) derived cell line which was generated by transfecting MCF7 cells with the full length erbB2 gene using standard methods to give a cell line that overexpresses full length wild type erbB2 protein (hereinafter ‘Clone 24’ cells).
Clone 24 cells were cultured in Growth Medium (phenol red free Dulbecco's modified Eagle's medium (DMEM) containing 10% foetal bovine serum, 2 mM glutamine and 1.2 mg/ml G418) in a 7.5% CO2 air incubator at 37° C. Cells were harvested from T75 stock flasks by washing once in PBS (phosphate buffered saline, pH7.4, Gibco No. 10010-015) and harvested using 2 mls of Trypsin (1.25 mg/ml)/ethylaminediaminetetraacetic acid (EDTA) (0.8 mg/ml) solution. The cells were resuspended in Growth Medium. Cell density was measured using a haemocytometer and viability was calculated using Trypan Blue solution before being further diluted in Growth Medium and seeded at a density of 1×10^4 cells per well (in 100 ul) into clear bottomed 96 well plates (Packard, No. 6005182).
3 days later, Growth Medium was removed from the wells and replaced with 100 ul Assay Medium (phenol red free DMEM, 2 mM glutamine, 1.2 mg/ml G418) either with or without erbB inhibitor compound. Plates were returned to the incubator for 4 hours and then 20 μl of 20% formaldehyde solution in PBS was added to each well and the plate was left at room temperature for 30 minutes. This fixative solution was removed with a multichannel pipette, 100 μl of PBS was added to each well and then removed with a multichannel pipette and then 50 μl PBS was added to each well. Plates were then sealed and stored for up to 2 weeks at 4° C.
Immunostaining was performed at room temperature. Cells were washed once with 200 μl PBS/Tween 20 (made by adding 1 sachet of PBS/Tween dry powder (Sigma, No. P3563) to 1 L of double distilled H2O) using a plate washer, then 100 μl of 0.5% Triton X-100/PBS was added to each well to permeabalise the cells. After 10 minutes, the plates were washed with 200 μl PBS/Tween 20 and then 100 μl Blocking Solution (5% Marvel dried simmed milk (Nestle) in PBS) was added per well and plates were incubated for 15 minutes. […] Plates were analysed within six hours of completing the immunostaining.
The Fluorescence signal is each well was measured using an Acumen Explorer Instrument (Acumen Bioscience Ltd.), a plate reader that can be used to rapidly quantitate features of images generated by laser-scanning. […] Fluorescence dose response data obtained with each compound was exported into a suitable software package (such as Origin) to perform curve fitting analysis. […]

erbB2 tyrosine kinase = target: T3, erbB2 tyrosine kinase (Homo sapiens, UniProt P04626); test: Protein tyrosine kinase phosphorylation assay, Test (a), erbB2; format: biochemical; details: recombinant intracellular fragment, ATP at Km concentration; read-out: IC50 (μM) Test (a): Inhibition of erbB2 tyrosine kinase protein phosphorylation
T3 construct: Recombinant intracellular fragments of EGFR, erbB2 and erbB4; made in house; host or cells: baculovirus/Sf21 insect cells (cleared lysate used)
Experimental: as §1, §2, §3, §4, §5

T1 sequence (P00533 669-1210 limits assumed): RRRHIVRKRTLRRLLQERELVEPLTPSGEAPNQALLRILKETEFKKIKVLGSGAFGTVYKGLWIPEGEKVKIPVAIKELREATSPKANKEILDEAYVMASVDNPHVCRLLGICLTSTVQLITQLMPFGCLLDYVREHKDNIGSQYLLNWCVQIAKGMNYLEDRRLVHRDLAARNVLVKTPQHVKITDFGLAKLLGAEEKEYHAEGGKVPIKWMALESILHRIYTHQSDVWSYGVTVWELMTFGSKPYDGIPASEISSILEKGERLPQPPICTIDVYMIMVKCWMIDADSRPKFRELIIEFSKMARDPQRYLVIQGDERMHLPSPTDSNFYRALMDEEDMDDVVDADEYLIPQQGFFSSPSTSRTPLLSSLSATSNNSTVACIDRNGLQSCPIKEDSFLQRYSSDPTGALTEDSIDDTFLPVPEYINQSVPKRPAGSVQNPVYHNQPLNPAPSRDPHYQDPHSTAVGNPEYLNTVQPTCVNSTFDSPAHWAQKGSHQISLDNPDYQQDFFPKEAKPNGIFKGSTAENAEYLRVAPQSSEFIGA
T3 sequence (P04626 676-1255 limits assumed): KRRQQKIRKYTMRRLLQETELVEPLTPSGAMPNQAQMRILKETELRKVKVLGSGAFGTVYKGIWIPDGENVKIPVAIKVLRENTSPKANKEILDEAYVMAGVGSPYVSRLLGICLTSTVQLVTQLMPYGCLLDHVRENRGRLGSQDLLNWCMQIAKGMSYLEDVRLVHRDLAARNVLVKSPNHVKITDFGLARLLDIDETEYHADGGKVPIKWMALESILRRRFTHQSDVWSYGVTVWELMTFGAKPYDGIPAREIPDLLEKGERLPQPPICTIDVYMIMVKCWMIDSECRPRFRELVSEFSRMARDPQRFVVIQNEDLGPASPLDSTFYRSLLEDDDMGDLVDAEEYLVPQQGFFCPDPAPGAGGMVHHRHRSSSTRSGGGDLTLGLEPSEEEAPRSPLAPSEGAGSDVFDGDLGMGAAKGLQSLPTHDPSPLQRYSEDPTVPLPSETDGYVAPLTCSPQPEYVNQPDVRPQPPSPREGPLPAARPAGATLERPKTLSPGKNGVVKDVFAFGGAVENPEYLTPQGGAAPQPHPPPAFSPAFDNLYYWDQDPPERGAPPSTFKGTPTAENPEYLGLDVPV
T2 sequence (P04626 23-1255): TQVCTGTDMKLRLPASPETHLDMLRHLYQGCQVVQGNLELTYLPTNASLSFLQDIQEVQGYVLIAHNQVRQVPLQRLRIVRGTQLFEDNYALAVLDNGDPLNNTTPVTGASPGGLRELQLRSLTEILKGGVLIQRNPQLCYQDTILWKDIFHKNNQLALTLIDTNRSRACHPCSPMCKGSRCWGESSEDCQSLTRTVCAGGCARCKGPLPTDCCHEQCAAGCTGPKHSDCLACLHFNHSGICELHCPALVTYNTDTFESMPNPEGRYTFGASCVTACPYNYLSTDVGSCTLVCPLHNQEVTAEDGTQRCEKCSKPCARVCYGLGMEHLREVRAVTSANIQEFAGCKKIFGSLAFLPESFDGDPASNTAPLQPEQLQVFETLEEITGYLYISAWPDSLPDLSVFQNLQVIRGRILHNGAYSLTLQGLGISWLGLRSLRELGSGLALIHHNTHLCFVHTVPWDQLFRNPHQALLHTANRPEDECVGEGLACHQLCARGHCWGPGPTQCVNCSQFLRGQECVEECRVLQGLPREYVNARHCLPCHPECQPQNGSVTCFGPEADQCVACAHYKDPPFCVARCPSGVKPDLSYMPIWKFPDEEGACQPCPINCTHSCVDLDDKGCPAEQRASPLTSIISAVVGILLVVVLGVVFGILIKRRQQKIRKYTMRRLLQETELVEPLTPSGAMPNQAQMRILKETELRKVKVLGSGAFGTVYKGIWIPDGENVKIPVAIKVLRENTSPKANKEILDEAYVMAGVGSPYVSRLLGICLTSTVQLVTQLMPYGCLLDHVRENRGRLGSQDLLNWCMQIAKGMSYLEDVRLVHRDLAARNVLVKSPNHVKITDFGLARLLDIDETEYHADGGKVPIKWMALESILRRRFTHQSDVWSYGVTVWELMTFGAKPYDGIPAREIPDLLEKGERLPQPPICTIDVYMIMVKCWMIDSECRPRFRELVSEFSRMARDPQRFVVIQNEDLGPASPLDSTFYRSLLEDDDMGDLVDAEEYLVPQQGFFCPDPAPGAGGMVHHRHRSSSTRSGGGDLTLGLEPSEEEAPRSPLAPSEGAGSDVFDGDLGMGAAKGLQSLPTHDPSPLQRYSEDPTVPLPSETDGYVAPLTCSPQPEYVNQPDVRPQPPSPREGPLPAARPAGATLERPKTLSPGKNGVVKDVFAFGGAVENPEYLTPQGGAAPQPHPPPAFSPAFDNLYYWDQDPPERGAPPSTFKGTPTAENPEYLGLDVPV

Row | SMILES | IC50 (EGFR tyrosine kinase) | IC50 [1] | IC50 (erbB2 tyrosine kinase)
1 | C[C@@H](Oc1cccc2ncnc(Nc3ccc(OCc4ccccn4)c(Cl)c3)c12)C(=O)N(C)C [Example 21, (2R)-2-[(4-{[3-Chloro-4-(pyridin-2-ylmethoxy)phenyl]amino}quinazolin-5-yl)oxy]-N,N-dimethylpropanamide] | 0.072 µM | 0.001 µM | 0.002 µM
2 | Cc1ccc(Oc2ccc(Nc3ncnc4cccc(OCC(=O)NCCO)c34)cc2C)cn1 [Example 52, N-(2-Hydroxyethyl)-2-{[4-({3-methyl-4-[(6-methylpyridin-3-yl)oxy]phenyl}amino)quinazolin-5-yl]oxy}acetamide] | 1.47 µM | 0.019 µM | 0.002 µM
3 | CC(C)(Oc1cccc2ncnc(Nc3ccc(OCc4ccccn4)c(Cl)c3)c12)C(N)=O [Example 42, 2-[(4-{[3-Chloro-4-(pyridin-2-ylmethoxy)phenyl]amino}quinazolin-5-yl)oxy]-2-methylpropanamide] | 24.8 µM | 0.002 µM | 0.012 µM
4 | C[C@H](Oc1cccc2ncnc(Nc3ccc(OCc4ccccn4)c(Cl)c3)c12)C(=O)N1CCC[C@H]1CO [Example 34, ((2S)-1-{(2S)-2-[(4-{[3-Chloro-4-(pyridin-2-ylmethoxy)phenyl]amino}quinazolin-5-yl)oxy]propanoyl}pyrrolidin-2-yl)methanol] | 0.135 µM | 0.001 µM | 0.002 µM
